Experiment: gradient 5% acetonitrile 3 min, to 50% in 2 min, to 85% in 15 min, held 3 min, 100 µL/min
Settings: column: Zorbax Extend-C18 2.1 x 50 mm; eluents: water / acetonitrile, 0.1% formic acid
In short: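 Retention times of pure standards were taken from adduct peaks that were selected by computer and manually inspected. Over 3 months, mixtures of ~100 molecules were run by HPLC–quadrupole time-of-flight mass spectrometry in positive and negative ionization mode. The Zorbax Extend-C18 column (2.1 × 50 mm, 1.8 μm) ran at 100 μL/min in water and acetonitrile, each containing 0.1% formic acid, with 40 μL dead volume and 900 μL dwell volume.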

Row | Compound | RP-LC retention time
1 | O=c1n(CCOc2ccccc2)nc2c(S(=O)(=O)N3CCCC3)cccn12 | 794 s
2 | CCOC(=O)CNC(=O)N1CCN(Cc2nc3cc(Cl)ccc3o2)CC1 | 644 s
3 | O=C(NC1CC1)c1cc(-c2ccccc2)ns1 | 836 s
4 | CCNC(=O)c1cc(-c2ccccc2)n[nH]1 | 668 s
5 | Cn1ncc(N2CCC(C(=O)Nc3ccc4oc(-c5ccncc5)nc4c3)C2)cc1=O (centres undefined) | 642 s
6 | COc1ncc(C(=O)NC(C)CCc2ccccc2)cn1 (centres undefined) | 797 s
7 | CC(C)CCNC(=O)C1(C)Cn2nc(C(=O)NCC(C)c3ccccc3)cc2C(=O)N1C (centres undefined) | 833 s
8 | CC(=O)N1CCc2cc(C(=O)N3CCCC3)ccc21 | 869 s
9 | COc1cc(C(=O)Nc2cnn(C)c(=O)c2N2CCCCC2)cc(OC)c1OC | 878 s
10 | Cc1ccc(-c2nc3ccc(C)cn3c2Nc2ccc3c(c2)OCCO3)cc1 | 715 s
11 | Cc1nnc(-c2ccc3ccn(CC(=O)N4CCN(c5cccc(C)c5C)CC4)c3c2)o1 | 997 s
12 | COc1ccc2[nH]c(=O)c(CCC(=O)NCCCN3CCCCC3C)cc2c1 (centres undefined) | 589 s
13 | Cc1nc(-c2ccc(F)cc2)sc1C(=O)N1CCC(C(C)C(=O)NC2CC2)CC1 (centres undefined) | 747 s
14 | O=C(Cc1ccccc1)N1CCCCC1c1nncn1-c1ccccc1 (centres undefined) | 741 s
15 | O=C(C1CC1)N1CCc2sc(S(=O)(=O)Nc3ccc(F)cc3Cl)cc2C1 | 870 s
16 | CCc1cccc(NC(=O)Cn2c(CC)nc3c(c2=O)CN(Cc2ccccc2)CC3)c1 | 718 s
17 | CCN(C(=O)c1cc2c(s1)N(C)CCCC2)C(C)C | 1020 s
18 | CC(C)c1cc(Oc2c(Br)cc(NC(=O)CC(=O)O)cc2Br)ccc1O | 940 s
19 | COc1ccc(OC)c(NC(=O)N2CCN(c3cc(C)nc(N4CCOCC4)n3)CC2)c1 | 627 s
20 | COCCCNC(=O)C1c2ccccc2C(=O)N1Cc1ccccc1C (centres undefined) | 753 s
21 | O=C(NCc1ccccc1Cl)c1c(O)c2cccnc2n(-c2cccc(F)c2)c1=O | 1230 s
22 | CCN1CCn2cc(S(=O)(=O)Nc3cc(F)cc(F)c3)cc2C1=O | 755 s
23 | COC(=O)c1cnn(C(=O)c2ccc(OC)cc2)c1N | 829 s

Row | Compound | RP-LC retention time
24 | O=C1CCCc2c1cc(C(=O)NCCc1ccco1)c(=O)n2-c1ccc(F)cc1 | 834 s
25 | COc1cccc(NS(=O)(=O)c2ccc(-c3nnc(C4CCC4)o3)o2)c1 | 881 s
26 | Cc1ccc(-c2nc(C)cc(SCC(=O)Nc3ccccc3Br)n2)cc1 | 1290 s
27 | CC(C)n1c(=O)oc2cc(-c3noc(-c4cccc5[nH]ccc45)n3)ccc21 | 1080 s
28 | CCCCC(=O)Nc1ccc2nc(N3CCN(CC)CC3)cc(C(=O)O)c2c1 | 571 s
29 | CC1(C)C(=O)N(CC(=O)Nc2cccc(Br)c2)c2ccccc21 | 968 s
30 | CCC1=C(c2ccc(C)cc2)S(=O)(=O)N=C1N1CCC(C(=O)N2CCOCC2)CC1 | 780 s
31 | Cn1cc(S(=O)(=O)N2CCC(C(=O)NCc3ccc(Cl)cc3)CC2)cc1C(=O)N1CCCC1 | 772 s
32 | Fc1cccc(Cc2noc(-c3nc(-c4ccccc4)no3)n2)c1 | 1160 s
33 | CCc1noc(NC(C)=O)c1-c1ccc(C)c(S(=O)(=O)N(C)c2ccc(C)cc2)c1 | 861 s
34 | Cc1ccc(C)c(N2CCN(c3ccnc(SCC(=O)Nc4ccc(C)c(F)c4)n3)CC2)c1 | 955 s
35 | Cn1nnc2ccc(-c3noc(-c4ccccc4Br)n3)cc21 | 1030 s
36 | COc1ccccc1-c1noc(C2CCCN2C(=O)Nc2ccc(C)c(C)c2)n1 (centres undefined) | 925 s
37 | CCOc1ccc(-c2nc(Cn3cnc4nc5c(cc4c3=O)CCCC5)c(C)o2)cc1 | 870 s
38 | Cc1cc2c(c(=O)n(-c3ccc(F)cc3)c(=O)n2CC(=O)Nc2cccc(Cl)c2)n1C | 887 s
39 | Cn1cnc(S(=O)(=O)N2CCCC(c3[nH]ccc3C(N)=O)C2)c1 (centres undefined) | 586 s
40 | COc1ccc(CN2CC(F)(F)C[C@H]2c2nnc(-c3cnccn3)o2)cc1C | 912 s
41 | Cc1noc(-c2nn(C)c3c2CN(C(=O)C2CCCO2)CC3)n1 (centres undefined) | 600 s
42 | Cc1cc(C)n(-c2ccc(C(=O)Nc3ccc(O)cc3)cn2)n1 | 738 s
43 | CCCC(=O)NC1CCN(c2ccccc2)C1=O (centres undefined) | 660 s
44 | CCOC(=O)Cc1ccc(NC(=O)N2CCN(CC)c3ncccc32)cc1 | 641 s
45 | COc1cc(-c2ccc(C)cc2)nc2ccc(NC(=O)c3ccco3)cc12 | 713 s
46 | Cc1sc(C)c(S(=O)(=O)Nc2ccccc2F)c1-c1cc(C(F)(F)F)on1 | 1130 s

Row | Compound | RP-LC retention time
47 | O=c1cc(-c2ccc(F)cc2)ncn1Cc1cccc(C(F)(F)F)c1 | 940 s
48 | O=C(c1cccc2[nH]cc(CN3CCOCC3)c12)N1CCN(c2ccc(Cl)cc2)CC1 | 753 s
49 | Cn1c(=O)c2c(ncn2CC(=O)N2CCCn3nc(-c4ccccc4)cc3C2)n(C)c1=O | 647 s
50 | CCc1nnc2c(=O)n(CC(=O)NCc3ccccc3F)c3cccnc3n12 | 685 s
51 | Cc1sc(NC(=O)CCc2ccccc2)nc1-c1ccc2c(c1)N(C)C(=O)CO2 | 1010 s
52 | COc1ccc2sc(Nc3nnc(-c4ccc5c(c4)OCCO5)o3)nc2c1 | 802 s
53 | O=C(CCCCCCSc1ccc2ccccc2c1)NO | 863 s
54 | CCc1ccccc1NC(=O)Cn1ccc2sccc2c1=O | 742 s
55 | CC(=O)Nc1ccc(CCc2nc3ccc(C(=O)NCCC(C)C)cc3[nH]2)cc1 | 630 s
56 | CCCN(CCC)CCCNC(=O)C1CCCN(c2nnc(N3CCCC3=O)s2)C1 (centres undefined) | 584 s
57 | Cc1ccc(Cl)cc1NC(=O)C1CCN(S(=O)(=O)c2cc3c(cc2C)NC(=O)CO3)CC1 | 863 s
58 | O=C(c1cnccn1)N1CC(F)(F)C[C@H]1c1nc(C2CC2)no1 | 746 s
59 | CCN(Cc1ccccc1)C(=O)Cn1cnc2onc(C)c2c1=O | 802 s
60 | O=C(NC1CCCCCC1)C1CCCN(C(=O)c2cccc(C(F)(F)F)c2)C1 (centres undefined) | 948 s
61 | CCn1c(=O)c2ccccc2n(Cc2nc(-c3ccc(OC(C)C)cc3)no2)c1=O | 1050 s
62 | COc1cccc(N2CCN(C(=O)CCc3nnc4c5cc(-c6ccccc6)nn5ccn34)CC2)c1 | 791 s
63 | COc1ccc(-c2nnc(-c3ccc(Cl)c(S(=O)(=O)N4CCC(C)CC4)c3)o2)cc1OC | 1180 s
64 | Cc1ccc(C)c(C(=O)N2CCCC(COc3ccc(C(=O)NC4CC4)cc3)C2)c1 (centres undefined) | 849 s
65 | NC[C@@H]1O[C@H](C23CC4CC(CC(C4)C2)C3)Cc2c1ccc(O)c2O | 787 s
66 | Cc1ccc(NC(=O)Cn2cnc3nc(N4CCCC(C(=O)NC5CC5)C4)sc3c2=O)cc1 (centres undefined) | 674 s
67 | O=C(CSc1ncccc1-c1noc(C2CCC2)n1)N1CCCCC1 | 979 s
68 | O=C(NCc1ccc(F)c(Cl)c1)c1csc(C(=O)NC2CC2)n1 | 828 s
69 | CCNS(=O)(=O)c1cccnc1Nc1ccc(C)c(Cl)c1 | 1110 s

Row | Compound | RP-LC retention time
70 | O=C(Cn1cnc2nc(N3CCC(C(=O)NC4CC4)CC3)sc2c1=O)Nc1ccccc1Cl | 665 s
71 | COc1ccc(-c2cc(NS(C)(=O)=O)n(C3CCS(=O)(=O)C3)n2)cc1 (centres undefined) | 696 s
72 | COC(=O)c1ncn2c1C(=O)N(c1cc(C)ccc1C)C(C)(C(=O)NC1CCCC1)C2 (centres undefined) | 718 s
73 | CC(C)Cn1c(=O)c(C(=O)NCc2ccccc2C(F)(F)F)nc2cccnc21 | 1070 s
74 | Cc1cc(Nc2nc3ccncc3n(Cc3ccccc3)c2=O)ccc1Cl | 747 s
75 | Cc1ccccc1Nc1c(-c2c(F)cccc2Cl)nc2c(C)cccn12 | 774 s
76 | COCCN1CCn2cc(S(=O)(=O)Nc3ccc(C#N)cc3)cc2C1=O | 671 s
77 | COc1ccc(-n2c(=O)n(C)c(=O)c3cc(C(=O)Nc4ccc(Cl)cc4)cnc32)cc1 | 966 s
78 | COc1ccccc1NC(=O)N1CC(C)Oc2ccc(C)cc21 (centres undefined) | 1130 s
79 | O=C(NCCCn1ccnc1)C1CC(=O)N(CCc2c[nH]c3ccc(F)cc23)C1 (centres undefined) | 594 s
80 | O=c1c(=O)n(-c2ccccc2)ccn1Cc1nc(-c2ccc(Br)cc2)no1 | 901 s
81 | CC1(C(=O)NCc2ccc(F)cc2)CCN(S(=O)(=O)c2ccc(C3CCCCC3)cc2)CC1 | 1210 s
82 | Cn1cc(-c2cc3n(n2)CCCN3C(=O)CCC(=O)NCc2ccccc2)c2ccccc21 | 804 s
83 | CC(C)CC(=O)Nc1ccc(-n2cnc(C(=O)NC3CC3)c2)nc1 | 668 s
84 | Cc1cccn2c(=O)cc(CN(Cc3ccccc3)Cc3ccco3)nc12 | 676 s
85 | CC(NS(=O)(=O)c1cccc(Cl)c1)C(=O)Nc1ccc(Br)cc1F (centres undefined) | 912 s
86 | Cc1nc2cc(-c3noc(-c4cc(F)ccc4Cl)n3)ccc2o1 | 1150 s
87 | CCc1cc(=O)n(CC(=O)NCc2ccc(OC)cc2)c(N)n1 | 631 s
88 | CCOC(=O)C1CCN(c2cc3c(cc2NC(=O)C2CC2)n(C)c(=O)c(=O)n3C)CC1 | 758 s
89 | CCC(=O)Nc1nnc(SCc2nnc(-c3ccccc3)o2)s1 | 739 s
